Source: patent publication US6914045B2, “Glycopeptide antibiotics” (Wyeth Holdings Corporation, priority 2001, dated 2005)
Converted amounts (≈) assume the structure as drawn.

Assays:
[1] = anatomic pathology (histopathology of heart and kidney) in mice; type: in vivo; settings: CD-1 mice, 20 mg/kg intravenously daily for 9 days, necropsy day 10, microscopic histopathology
Method: Samples of tissues from necropsied mice were formalin-fixed, paraffin-embedded, sectioned, stained with hematoxylin and eosin, and examined microscopically. Histopathologic findings were recorded. These findings were subjectively graded on a scale corresponding to slight, mild, moderate, marked and severe as compared to untreated controls.

[2] = system: Escherichia coli; experiment: in vitro antibacterial evaluation, MIC by broth dilution; type: cell-based; settings: 18 hours at 35° C.
[3] = clinical pathology (serum clinical chemistry) in mice; type: in vivo; settings: CD-1 mice, 20 mg/kg intravenously daily for 9 days, sera day 10
Method: 20-day-old CD-1 mice were divided into a vehicle control group (5 mice) and a treatment group (5 mice). Samples of glycopeptide antibiotics were administered at 20 mg/kg intravenously daily for 9 days.

[4] = system: Staphylococcus aureus-SMITH (GC 4543); experiment: acute lethal infection in mice; type: in vivo; settings: acute lethal infection, female CD-1 mice, intraperitoneal challenge, intravenous 30 min. after infection, 7 day survival
Outline: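 Intraperitoneal challenge of female CD-1 mice with a bacterial dose lethal to untreated animals within 24-48 hr; single iv treatment 30 min later, 5 mice per dose level. Survival is scored at day 7 and pooled from three experiments to give the median effective dose.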

[5] = system: Staphylococcus sp.; experiment: in vitro antibacterial evaluation, MIC by broth dilution; type: cell-based; settings: broth dilution, 18 hours at 35° C.
Outline: (§1)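 Broth dilution per NCCLS standard M7-A2 in Muller-Hinton II […], with an inoculum of 5×10^5 CFU/mL and antibiotic spanning 64-0.06 μg/mL. The MIC is the lowest concentration that inhibits growth of the organism.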

[6] = system: Enterococcus sp.; experiment: as above; type: cell-based; settings: broth dilution, 18 hours at 35° C.
Outline: as §1

[7] = system: Streptococcus sp.; experiment: as above; type: cell-based; settings: broth dilution, 18 hours at 35° C.
Outline: as §1

## COc1ccc2cc(COCC3OC(OC4C(CO)OC(Oc5ccc(CC6NC(=O)C(C(C)c7ccccc7)NC(=O)CNC(=O)C(CO)NC(=O)C(C(O)C7CNC(=N)N7C7OC(CO)C(O)C(O)C7O)NC(=O)C(C(O)C7CNC(=N)N7)NC6=O)cc5)C(O)C4O)C(O)C(O)C3O)ccc2c1 (stereo not drawn) [Example 230, Cyclo[glycyl-β-methylphenylalanyl-O-[4-O-[6-O-[(6-methoxy-2-naphthyl)methyl]hexopyranosyl]hexopyranosyl]tyrosyl-3-(2-iminoimidazolidin-4-yl)seryl-3-(3-hexopyranosyl-2-iminoimidazolidin-4-yl)serylseryl]]
[1]
  Anatomical Pathology (Day 10), Heart: 0
  Anatomical Pathology (Day 10), Kidney: +++
[2]
  MIC Escherichia coli (ATCC 25922): 64 µg/mL (≈ 43.7 µM)
  MIC Escherichia coli (GC 4559): >64 µg/mL
  MIC Escherichia coli (GC 4560): 1 µg/mL (≈ 0.682 µM)
[3]
  Clinical Chemistry (Day 10) % of Control, BUN: +179%
  Clinical Chemistry (Day 10) % of Control, Creatinine: +124%
[4]
  median effective dose (ED50), Staphylococcus aureus-SMITH (GC 4543): 0.12 mg/kg
[5]
  MIC Coagulase Negative Staphylococcus (GC 4547): 1 µg/mL (≈ 0.682 µM)
  MIC Coagulase Negative Staphylococcus (GC 4548): 0.5 µg/mL (≈ 0.341 µM)
  MIC Coagulase Negative Staphylococcus (GC 4549): 1 µg/mL (≈ 0.682 µM)
  MIC Coagulase Negative Staphylococcus (GC 4551): 2 µg/mL (≈ 1.36 µM)
  MIC Coagulase Negative Staphylococcus (GC 6257): 0.5 µg/mL (≈ 0.341 µM)
  MIC Staphylococcus aureus (ATCC 29213): 2 µg/mL (≈ 1.36 µM)
  MIC Staphylococcus aureus (GC 1131): 2 µg/mL (≈ 1.36 µM)
  MIC Staphylococcus aureus (GC 3051): 2 µg/mL (≈ 1.36 µM)
  MIC Staphylococcus aureus (GC 3053): 2 µg/mL (≈ 1.36 µM)
  MIC Staphylococcus aureus (GC 4541): 1 µg/mL (≈ 0.682 µM)
  MIC Staphylococcus aureus (GC 4542): 2 µg/mL (≈ 1.36 µM)
  MIC Staphylococcus aureus (GC 4544): 2 µg/mL (≈ 1.36 µM)
  MIC Staphylococcus aureus (GC 4545): 1 µg/mL (≈ 0.682 µM)
  MIC Staphylococcus aureus-SMITH (GC 4543): 1 µg/mL (≈ 0.682 µM)
  MIC Staphylococcus haemolyticus (GC 4546): 1 µg/mL (≈ 0.682 µM)
[5]; strain ATCC 29213
  MIC Staphylococcus aureus (ATCC 29213): 2 µg/mL (≈ 1.36 µM)
[5]; strain GC 1131
  MIC Staphylococcus aureus (GC 1131): 2 µg/mL (≈ 1.36 µM)
[5]; strain GC 3051
  MIC Staphylococcus aureus (GC 3051): 2 µg/mL (≈ 1.36 µM)
[5]; strain GC 3053
  MIC Staphylococcus aureus (GC 3053): 2 µg/mL (≈ 1.36 µM)
[5]; strain GC 4541
  MIC Staphylococcus aureus (GC 4541): 1 µg/mL (≈ 0.682 µM)
[5]; strain GC 4542
  MIC Staphylococcus aureus (GC 4542): 2 µg/mL (≈ 1.36 µM)
[5]; strain GC 4543
  MIC Staphylococcus aureus-SMITH (GC 4543): 1 µg/mL (≈ 0.682 µM)
[5]; strain GC 4544
  MIC Staphylococcus aureus (GC 4544): 2 µg/mL (≈ 1.36 µM)
[5]; strain GC 4545
  MIC Staphylococcus aureus (GC 4545): 1 µg/mL (≈ 0.682 µM)
[5]; strain GC 4546
  MIC Staphylococcus haemolyticus (GC 4546): 1 µg/mL (≈ 0.682 µM)
[5]; strain GC 4547
  MIC Coagulase Negative Staphylococcus (GC 4547): 1 µg/mL (≈ 0.682 µM)
[5]; strain GC 4548
  MIC Coagulase Negative Staphylococcus (GC 4548): 0.5 µg/mL (≈ 0.341 µM)
[5]; strain GC 4549
  MIC Coagulase Negative Staphylococcus (GC 4549): 1 µg/mL (≈ 0.682 µM)
[5]; strain GC 4551
  MIC Coagulase Negative Staphylococcus (GC 4551): 2 µg/mL (≈ 1.36 µM)
[5]; strain GC 6257
  MIC Coagulase Negative Staphylococcus (GC 6257): 0.5 µg/mL (≈ 0.341 µM)
[6]
  MIC Enterococcus avium (GC 4558): 8 µg/mL (≈ 5.46 µM)
  MIC Enterococcus faecalis (ATCC 29212): 8 µg/mL (≈ 5.46 µM)
  MIC Enterococcus faecalis (GC 2242): 8 µg/mL (≈ 5.46 µM)
  MIC Enterococcus faecalis (GC 2691): 4 µg/mL (≈ 2.73 µM)
  MIC Enterococcus faecalis (GC 3059): 8 µg/mL (≈ 5.46 µM)
  MIC Enterococcus faecalis (GC 4552): 8 µg/mL (≈ 5.46 µM)
  MIC Enterococcus faecalis (GC 4553): 8 µg/mL (≈ 5.46 µM)
  MIC Enterococcus faecalis (GC 4554): 8 µg/mL (≈ 5.46 µM)
  MIC Enterococcus faecalis (GC 6189): 4 µg/mL (≈ 2.73 µM)
  MIC Enterococcus faecium (GC 2243): 8 µg/mL (≈ 5.46 µM)
  MIC Enterococcus faecium (GC 4556): 8 µg/mL (≈ 5.46 µM)
  MIC Enterococcus faecium (GC 4557): 2 µg/mL (≈ 1.36 µM)
[6]; inoculum 5×10^5 CFU/mL, strain ATCC 29212
  MIC Enterococcus faecalis (ATCC 29212): 8 µg/mL (≈ 5.46 µM)
[6]; inoculum 5×10^5 CFU/mL, strain GC 2242
  MIC Enterococcus faecalis (GC 2242): 8 µg/mL (≈ 5.46 µM)
[6]; inoculum 5×10^5 CFU/mL, strain GC 2243
  MIC Enterococcus faecium (GC 2243): 8 µg/mL (≈ 5.46 µM)
[6]; inoculum 5×10^5 CFU/mL, strain GC 2691
  MIC Enterococcus faecalis (GC 2691): 4 µg/mL (≈ 2.73 µM)
[6]; inoculum 5×10^5 CFU/mL, strain GC 3059
  MIC Enterococcus faecalis (GC 3059): 8 µg/mL (≈ 5.46 µM)
[6]; inoculum 5×10^5 CFU/mL, strain GC 4552
  MIC Enterococcus faecalis (GC 4552): 8 µg/mL (≈ 5.46 µM)
[6]; inoculum 5×10^5 CFU/mL, strain GC 4553
  MIC Enterococcus faecalis (GC 4553): 8 µg/mL (≈ 5.46 µM)
[6]; inoculum 5×10^5 CFU/mL, strain GC 4554
  MIC Enterococcus faecalis (GC 4554): 8 µg/mL (≈ 5.46 µM)
[6]; inoculum 5×10^5 CFU/mL, strain GC 4556
  MIC Enterococcus faecium (GC 4556): 8 µg/mL (≈ 5.46 µM)
[6]; inoculum 5×10^5 CFU/mL, strain GC 4557
  MIC Enterococcus faecium (GC 4557): 2 µg/mL (≈ 1.36 µM)
[6]; inoculum 5×10^5 CFU/mL, strain GC 4558
  MIC Enterococcus avium (GC 4558): 8 µg/mL (≈ 5.46 µM)
[6]; inoculum 5×10^5 CFU/mL, strain GC 6189
  MIC Enterococcus faecalis (GC 6189): 4 µg/mL (≈ 2.73 µM)
[7]
  MIC Streptococcus agalactiae (GC 4564): 0.5 µg/mL (≈ 0.341 µM)
  MIC Streptococcus pneumoniae (ATCC 6301): 0.12 µg/mL (≈ 0.0819 µM)
  MIC Streptococcus pneumoniae (GC 1894): <0.06 µg/mL
  MIC Streptococcus pneumoniae (GC 4565): 0.12 µg/mL (≈ 0.0819 µM)
  MIC Streptococcus pyogenes (GC 4563): 0.25 µg/mL (≈ 0.171 µM)
[7]; inoculum 5×10^5 CFU/mL, strain ATCC 6301
  MIC Streptococcus pneumoniae (ATCC 6301): 0.12 µg/mL (≈ 0.0819 µM)
[7]; inoculum 5×10^5 CFU/mL, strain GC 1894
  MIC Streptococcus pneumoniae (GC 1894): <0.06 µg/mL
[7]; inoculum 5×10^5 CFU/mL, strain GC 4563
  MIC Streptococcus pyogenes (GC 4563): 0.25 µg/mL (≈ 0.171 µM)
[7]; inoculum 5×10^5 CFU/mL, strain GC 4564
  MIC Streptococcus agalactiae (GC 4564): 0.5 µg/mL (≈ 0.341 µM)
[7]; inoculum 5×10^5 CFU/mL, strain GC 4565
  MIC Streptococcus pneumoniae (GC 4565): 0.12 µg/mL (≈ 0.0819 µM)
